Data from patent US12679860B2, “C-terminal HSP90 inhibitors” (UNIVERSITY OF KANSAS, priority 2012, dated 2026).
Where two headings read alike, the source gives them in different places.

Experiments:
[1] = test system: Hsp70; test: Immunoblot analysis of induction of Hsp70 in DRG sensory neurons; assay type: cell-based, Sprague Dawley rat; conditions: 24 hours incubation, then 4 hours of glucotoxic stress; Hsp70 normalized to β-actin
Description: DRG sensory neurons were incubated in the presence of DMSO (Cntrl) or 10-1000 nM of the indicated novologue overnight and then subjected to 4 hrs of hyperglycemia. The neurons were harvested and Hsp70 and β-actin levels were determined by immunoblot analysis. Band intensity was quantified using Image J, Hsp70 expression was normalized to the level of β-actin.
Since it was previously shown that the cytoprotective activity manifested by KU-32 requires Hsp70, the ability of 11b and 11n to induce Hsp70 was determined relative to KU-32. Increasing concentrations of KU-32, 11n, and 11b were incubated with DRG sensory neurons for 24 hours before the cells were subjected to 4 hours of glucotoxic stress. Hsp70 levels were examined by performing immunoblot analysis with the cellular lysates (FIG. 5). 11n and 11b induced Hsp70 levels at similar concentrations (10 nM) as those needed for neuroprotection.
DRG from embryonic day 15-18 Sprague Dawley rat pups were harvested into Leibovitz's L15 medium (L15) and dissociated with 0.25% trypsin for 30 min at 37° C. […]

[2] = test system: embryonic dorsal root ganglion (DRG) sensory neuron cultures; test: Glucotoxicity assay: cell viability (calcein AM) of DRG sensory neurons under glucose-induced toxicity; assay type: cell-based, Sprague Dawley rat; conditions: for EC50: 0.1-1000 nM novologue overnight, then 4 hrs of hyperglycemia, mean±SEM (n=3-8), read-out: EC50 for protection against glucose-induced toxicity
Description: DRG sensory neurons were incubated in the absence or presence of 0.1-1000 nM of the indicated novologue overnight and then subjected to 4 hrs of hyperglycemia.
The ganglia were sedimented at 1,000×g for 5 min, resuspended in growth media [phenol red free Neurobasal medium (Gibco, Grand Island, NY) containing 25 mM glucose, 1X B-27 additive, 50 ng/ml NGF (Harlan Bioscience, Indianapolis, IN), 4 mM glutamine, 100 U/mL penicillin and 100 μg/mL streptomycin] and triturated with a fire-polished glass pipette. The cells were cultured on collagen-coated (0.1 mg/mL collagen followed by overnight air drying in a laminar flow hood) black-walled 96-well plates (Corning Incorporated Corning, NY) at a seeding density of 2-3×10^4 cells per well. DRG neurons were re-fed the next day with fresh growth media containing 40 μM fluorodeoxyuridine and 10 μM cytosine β-D-arabinoside (both from Sigma Aldrich, St. Louis, MO) for 2 days to remove proliferating cells. Experiments were performed on DRG neurons on the third day in culture after placing the cells in fresh growth medium. […]
DRG neurons were incubated overnight with the test compounds in the presence of Neurobasal medium, 50 ng/ml NGF and antibiotics only. In order to monitor the efficiency of the compounds in protecting DRG neurons against glucotoxicity, Calcein AM (Invitrogen, Carlsbad, CA) was utilized to measure cell viability. Hydrolysis of calcein AM to a fluorescent product can only occur in live cells. Excess glucose was added to the cultures for 4 hrs and cell viability was measured by incubating the cells with 2 μM calcein AM for 30 min in the dark at 37° C. Fluorescence was then measured using a plate reader with excitation and emission wavelengths set to 485 nm and 520 nm, respectively. The arbitrary fluorescence readings were normalized to the total amount of protein from each respective well of the neuronal cultures. The protein concentrations in each well were determined using the DC protein assay (Bio-Rad). Significant differences in the efficacy of the novologues for increasing cell viability were determined using a Kruskal-Wallis non-parametric ANOVA and Dunn's post-test.

[3] = test system: myelinated cultures of sensory neurons prepared from Hsp70.1 and 70.3 double knockout mice; conditions: sensory neurons from Hsp70.1 and 70.3 double knockout mice; cited from earlier work
[4] = test system: diabetic mice; conditions: weekly treatment, cited from earlier work

SMILES	concentration at which Hsp70 levels were induced [1]	EC50 ([2]; Rattus norvegicus, Neuron)	viability at 1 µM ([2]; Rattus norvegicus, Neuron, Table 1, 1 μM of each novologue + 20 mM excess glucose, glucose + DMSO was 54% ± 2)	prevention of neuregulin-induced demyelination [3]	reversal of clinical indices of DPN ([4]; diabetic Hsp70 knockout mice)	sensory and motor nerve function ([4]; diabetic wild type mice)	EC50 [2]
CO[C@@H]1[C@@H](O)[C@@H](O)C(Oc2ccc(CCNC(C)=O)c(-c3ccc4c(c3)OCO4)c2)OC1(C)C (stereo partly drawn) [11n, N-(2-(benzo[d][1,3]dioxol-5-yl)-4-(((3R,4S,5R)-3,4-dihydroxy-5-methoxy-6,6-dimethyltetrahydro-2H-pyran-2-yl)oxy)phenethyl)acetamide]	10 nM	18.4 ± 3.2 nM	83%				
CO[C@@H]1[C@@H](O)[C@@H](O)[C@H](Oc2ccc3cc(NC(C)=O)c(=O)oc3c2C)OC1(C)C [KU-32]				ineffective	unable to reverse multiple clinical indices of DPN	restored normal sensory and motor nerve function	240 ± 42.5 nM
